Like-named read-outs stand apart in the source and are kept apart here.
Key:
THP-1 cells = experiment: Measurement of IL-1β production, hTRF protocol (second alternative procedure), THP-1 cells; format: cell-based, human; conditions: Homo sapiens, THP-1, IL-1β production, read-out: NLRP3 hILIB EC50
Experimental: Measurement of IL-1β Production—hTRF Protocol (Second Alternative Procedure)
Serial dilutions of compounds in DMSO were added to low volume 384 well plates at 100 nl/well using an ECHO 550 acoustic dispenser (Labcyte) to achieve final starting concentration of 10 μM in assay.
THP-1 cells in RPMI (Gibco, 11875) media with 10% FBS at a density of 1×10^6 cell/ml in a T175 flask were treated with a final concentration of phorbol 12-myristate 13-acetate (PMA) (Sigma, P1585) of 50 ng/ml overnight at 37° C. at 5% CO2 for differentiation. Cells were harvested the next day after rinsing well with dPBS using 0.5% trypsin. A cell solution was prepared of 1×10^6 cells/ml for 50,000 cells in 50 μl/well in RPMI media with 2% FBS. Cells were plated using a multichannel pipette onto the compound dilutions in Greiner, 384 well, black clear bottom tissue culture treated plates (781090). The plates were incubated in 37° C. incubator at 5% CO2 for 2 hours.
After the 2 hour incubation, the cell plates were spun in the centrifuge for 5 minutes at 1200 rpm. Using the Felix (CyBio), 8 μl of the supernatant was transferred to 384 well, low volume, white proxy plates. (Perkin Elmer, 6008230). A human IL1beta hTRF kit was used to analyze the supernatant (CISBIO, 62HIL1BPEG). The kit instructions were followed for preparing the IL1Beta standard curve and then the antibodies from the kit were diluted 1:40 rather than 1:20 as kit instructed. Once combined, the antibodies were added across the plates, 5 μl/well. The plates were sealed and incubated at 4° C. overnight. The plates were then read on the Perkin Elmer EnVision at 665/615 nm using the hTRF laser.

TLR8 = molecular target: T1, TLR8 (Homo sapiens, UniProt Q9NR97); experiment: In vitro human TLR8 binding reporter assay (HEK-Blue, NF-kB/AP1-inducible SEAP); format: cell-based; conditions: read-out: TLR8 Agonist EC50
T1 construct: human HEK-Blue cells co-expressing a TLR7 or TLR8 gene
T1 sequence (Q9NR97 27-1041): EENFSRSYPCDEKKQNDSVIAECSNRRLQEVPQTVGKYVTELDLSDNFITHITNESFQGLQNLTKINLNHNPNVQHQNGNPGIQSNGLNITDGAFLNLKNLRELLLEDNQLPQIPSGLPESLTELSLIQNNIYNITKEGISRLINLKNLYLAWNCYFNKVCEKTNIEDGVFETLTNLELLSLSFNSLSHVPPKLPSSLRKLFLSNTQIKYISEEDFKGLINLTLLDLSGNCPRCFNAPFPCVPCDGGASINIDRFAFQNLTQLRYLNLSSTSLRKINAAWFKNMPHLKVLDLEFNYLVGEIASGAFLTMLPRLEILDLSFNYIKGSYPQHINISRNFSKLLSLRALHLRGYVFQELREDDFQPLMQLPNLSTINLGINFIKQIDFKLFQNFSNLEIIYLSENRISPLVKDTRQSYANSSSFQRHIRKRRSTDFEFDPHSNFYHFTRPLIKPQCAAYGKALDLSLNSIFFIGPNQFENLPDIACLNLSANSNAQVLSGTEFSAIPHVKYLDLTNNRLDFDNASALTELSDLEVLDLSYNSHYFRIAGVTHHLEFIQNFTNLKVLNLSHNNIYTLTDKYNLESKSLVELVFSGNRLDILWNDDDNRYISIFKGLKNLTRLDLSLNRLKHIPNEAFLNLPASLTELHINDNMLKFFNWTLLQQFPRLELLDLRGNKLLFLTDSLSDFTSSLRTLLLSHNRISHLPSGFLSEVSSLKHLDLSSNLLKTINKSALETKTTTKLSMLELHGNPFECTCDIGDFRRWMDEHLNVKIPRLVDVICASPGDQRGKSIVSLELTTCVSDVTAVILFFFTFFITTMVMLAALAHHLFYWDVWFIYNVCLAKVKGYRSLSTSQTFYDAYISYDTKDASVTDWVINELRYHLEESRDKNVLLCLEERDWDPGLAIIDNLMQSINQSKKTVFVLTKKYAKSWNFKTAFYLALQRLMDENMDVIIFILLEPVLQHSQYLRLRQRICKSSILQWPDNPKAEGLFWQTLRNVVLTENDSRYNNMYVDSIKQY
Experimental: (§1) In Vitro Human TLR7 and TLR8 Binding Reporter Assays
(§2) Logarithmically-growing human HEK-Blue cells co-expressing a TLR7 or TLR8 gene and a NF-kB/AP1-inducible SEAP (secreted embryonic alkaline phosphatase; Invivogen, San Diego, CA) reporter gene are added to individual wells of a 384-well plate (15,000 cells per 20 μL per well) and maintained for 24 h at 37° C., 5% CO2. Test compounds or DMSO are distributed to separate wells the next day using acoustic liquid handling technology (100 nL per well) and cells are subsequently incubated for 18 h at 37° C., 5% CO2. Cellular SEAP production is measured using an Envision plate reader instrument thirty minutes after adding freshly-made Quanti-Blue reagent (prepared by following manufacturer instructions; Invivogen, San Diego, CA) to the HEK-Blue TLR Nf-kB-SEAP cell reactions. All EC50 values (half-maximal effective concentration) are determined using proprietary data analysis software. Normalized EC50 value=absolute value determined by setting 100% Ymax using a reference standard RLU (relative light unit) values from cells treated with 50 μM of the reference standard.

TLR7 = molecular target: T2, TLR7 (Homo sapiens, UniProt Q9NYK1); experiment: In vitro human TLR7 binding reporter assay (HEK-Blue, NF-kB/AP1-inducible SEAP); format: cell-based; conditions: read-out: TLR7 Agonist EC50
T2 construct: human HEK-Blue cells co-expressing a TLR7 or TLR8 gene
T2 sequence (Q9NYK1 27-1049): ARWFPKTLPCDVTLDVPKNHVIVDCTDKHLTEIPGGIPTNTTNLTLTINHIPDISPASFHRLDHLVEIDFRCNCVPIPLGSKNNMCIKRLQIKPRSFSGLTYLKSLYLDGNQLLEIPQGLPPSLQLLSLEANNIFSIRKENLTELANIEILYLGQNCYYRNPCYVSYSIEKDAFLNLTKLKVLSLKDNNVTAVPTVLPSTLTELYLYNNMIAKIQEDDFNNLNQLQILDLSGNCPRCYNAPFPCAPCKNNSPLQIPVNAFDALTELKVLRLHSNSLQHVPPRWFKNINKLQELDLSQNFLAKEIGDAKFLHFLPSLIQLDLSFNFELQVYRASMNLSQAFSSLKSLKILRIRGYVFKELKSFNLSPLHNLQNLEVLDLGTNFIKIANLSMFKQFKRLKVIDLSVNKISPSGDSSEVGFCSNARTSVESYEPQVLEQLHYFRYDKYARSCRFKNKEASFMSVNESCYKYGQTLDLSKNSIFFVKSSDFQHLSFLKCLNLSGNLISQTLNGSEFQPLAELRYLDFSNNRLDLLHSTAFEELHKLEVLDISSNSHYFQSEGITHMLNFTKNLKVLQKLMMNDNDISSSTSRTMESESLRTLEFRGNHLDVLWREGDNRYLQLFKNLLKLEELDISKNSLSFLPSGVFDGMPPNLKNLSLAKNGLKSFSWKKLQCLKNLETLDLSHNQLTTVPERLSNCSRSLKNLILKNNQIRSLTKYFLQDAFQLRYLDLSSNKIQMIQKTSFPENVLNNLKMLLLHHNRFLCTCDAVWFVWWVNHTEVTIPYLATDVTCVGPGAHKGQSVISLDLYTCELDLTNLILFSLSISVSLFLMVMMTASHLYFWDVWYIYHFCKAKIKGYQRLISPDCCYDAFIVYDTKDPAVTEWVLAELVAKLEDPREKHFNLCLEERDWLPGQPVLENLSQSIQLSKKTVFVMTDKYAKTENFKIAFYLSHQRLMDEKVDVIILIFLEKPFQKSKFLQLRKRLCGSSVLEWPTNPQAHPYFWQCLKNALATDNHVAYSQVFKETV
Experimental: as §1, §2

Row | Compound | EC50 (THP-1 cells; human cells) [µM] | EC50 (TLR8; activity range) [µM] | EC50 (TLR7; activity range) [µM] | EC50 (THP-1 cells; human) [µM] | EC50 (TLR8; activity range class) [µM] | EC50 (TLR7; activity range class) [µM]
1 | CC(C)S(=O)(=O)NCCc1cc2c(N)nc3cc(-c4cc[nH]n4)ccc3c2[nH]1 [Example 483] | 1.1 | > 100 | > 100 | – | – | –
2 | Nc1nc2cc(-c3cc[nH]n3)ccc2c2cn(CCNC(=O)c3ncccc3Cl)nc12 [Example 92] | – | – | – | 1.07 | > 100 | > 100
3 | CC(Cn1cc2c(N)nc3cc(-c4cc[nH]n4)ccc3c2n1)C(=O)N1CC(O)C1 (stereo not drawn) [Example 613] | 23.4 | > 100 | > 100 | – | – | –
4 | CN1CCN(C(=O)CCn2cc3c(N)nc4cc(-c5cc[nH]n5)ccc4c3n2)CC1 [Example 505] | 29.6 | > 100 | > 100 | – | – | –
5 | CC(C(=O)NCCO)n1cc2c(N)nc3cc(-c4ccn[nH]4)ccc3c2n1 (stereo not drawn) [Example 568] | 2.1 | > 100 | > 100 | – | – | –
6 | Nc1nc2cc(-c3cc[nH]n3)ccc2c2cn(CCNC(=O)CO)nc12 [Example 35] | – | – | – | 20.7 | > 100 | 20 to 100
7 | CC(C(=O)N1CC(C)(O)C1)n1cc2c(N)nc3cc(-c4ccn[nH]4)ccc3c2n1 (stereo not drawn) [Example 578] | 18.6 | > 100 | > 100 | – | – | –
8 | Cc1ccccc1CNCCn1cc2c(n1)c(N)nc1cc(-c3cc[nH]n3)ccc12 [Example 105, 2-(2-{[(2-methylphenyl)methyl]amino}ethyl)-7-(1H-pyrazol-3-yl)-2H-pyrazolo[3,4-c]quinolin-4-amine] | – | – | – | 0.98 | > 100 | 20 to 100
9 | CC(C)(CO)NC(=O)Cn1cc2c(n1)c(N)nc1cc(-c3cc[nH]n3)ccc12 [Example 537] | 2.75 | > 100 | > 100 | – | – | –
10 | Nc1nc2cc(-c3cc[nH]n3)ccc2c2[nH]c(CCNC(=O)c3cnco3)cc12 [Example 500] | 0.37 | > 100 | > 100 | – | – | –
11 | Nc1nc2cc(-c3cc[nH]n3)ccc2c2nn(CCOC(F)F)cc12 [Example 349] | – | – | – | 0.35 | > 100 | > 100
12 | CCC(CO)Cn1cc2c(N)nc3cc(-c4cc[nH]n4)ccc3c2n1 (stereo not drawn) [Example 356] | – | – | – | 0.83 | > 100 | > 100
